Values belong to the molecule of their own block, whether it stands above or below them. Ends that are not written are not given here.
What was measured:
FBP21-WW2 = target: T1, FBP21-WW2 (Homo sapiens, UniProt O75554); assay: Isothermal titration calorimetry (ITC) with FBP21-WW2; format: binding; conditions: PBS pH 7.4, 25 °C, protein in cell 250 µM, peptide in syringe 5 mM, GST-tagged FBP21-WW2
T1 construct: with regard to FBP21’s WW domains by ITC; GST (N); made in house; host or cells: E. coli BL21 DE3 (pGEX4T1)
T1 sequence (O75554 163-196 limits assumed): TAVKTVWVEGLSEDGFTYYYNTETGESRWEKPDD
Procedure: (§1) Isothermal titration calorimetry
(§2) The His6-FBP21-tWW, FBP21-WW1 and FBP21-WW2 were dialyzed against PBS, pH 7.4.
(§3) Peptides were dissolved in PBS and the pH was adjusted to 7.4. hPG-peptide conjugate 2 was dialyzed against Millipore water and the buffer components were adjusted to PBS pH 7.4. The concentration was analyzed for all components by measuring absorbance at 280 nm using a Nanodrop2000 (Thermo Scientific). Extinction coefficients were Ɛ = 5500 M−1cm−1 for WPPPPRVPR and Ɛ = 32430 M−1cm−1 for FBP21-tWW. Accounting for the number of peptides on the scaffold, we calculated an extinction coefficient of Ɛ = 38500 M−1cm−1 for the hPG-peptide conjugate 2. ITC experiments were carried out on a Microcal ITC200 (GE Healthcare).
(§4) The parameters were set to: temperature 25 °C, spacing: 120 s (for WW1 and WW2 measurements) or 180 s (for tWW measurements), stirring speed: 1000 rpm, feedback gain: high, Filter: 5 s, DP: 7 µcal/s. In ITC measurements with FBP21 WW1 and WW2, the protein in the cell was concentrated to 250 µM, the peptide in the syringe to 5 mM, injected was 1 × 1 µL, then 15 × 2.5 µL. In ITC measurements with FBP21-tWW and peptide the protein concentration in the cell was 200 µM and the peptide concentration in the syringe 4 mM. In ITC measurements with FBP21-tWW and the hPG-peptide conjugate 2, the concentration of 2 in the cell was 90 µM and FBP21-tWW in the syringe 1.4 mM. Injected was 1 × 1 µL, then 19 × 2 µL. The data was analyzed with Origin and the Microcal ITC 200 AddOn. To obtain the stoichiometry (N) and the […]
particles and grown overnight at 30 °C, 250 rpm. The bacteria were pelleted; Phages were precipitated from the supernatant using 20% PEG, 2.5 M NaCl. The precipitated phages were pelleted and washed before resuspension in PBS/30% glycerol.
Protein expression and purification
FBP21-WW1 and FBP21-WW2 were expressed as a GST-tagged variant from pgex4T1 in E. coli BL21 DE3, FBP21-tWW was expressed from a pET28a-His6-FBP21-tWW plasmid in E. coli BL21 DE3 as described previously. Proteins were purified by the corresponding affinity matrices and applied to a HiLoad S75 Superdex 16/60 column in 1 × PBS, pH 7.4.
Proteins were concentrated by Centrifugal Filter Units (regenerated cellulose, 3000 MWCO, […]
SPOT analyses were performed as described. Membranes were blocked with 5% BSA in PBS, washed and incubated with GST, GST-WW1 or GST-WW2 at a concentration of 7.5 µg/mL (GST) or 10 µg/mL (GST-WW1, GST-WW2) respectively overnight at 4 °C. After washing, the spot arrays were incubated with a primary anti-GST antibody (Santa Cruz, GST-Z5, sc-459, 1:1000) for one hour at room temperature in blocking buffer, washed again and incubated for one hour with a secondary anti-rabbit antibody (goat anti-rabbit, Santa Cruz, sc-2004, 1:10000) at room temperature in blocking buffer. The peptide spot arrays were developed with HRP juice purchased from pjk GmbH on an Intas Advanced Fluorescence and ECL imager.
Synthesis of hPG-peptide conjugate 2
The peptide carboxylic acid, i.e., Ac-WPPPPRVPRGSG-COOH (0.0067 mmol, 9 mg), was dissolved in 2 mL dry DMF and cooled down to 0 °C using an ice bath under argon atmosphere.
To the cooled solution, N-hydroxysuccinimide (0.013 mmol, 1.54 mg) and DCC (0.013 mmol, 2.76 mg) were added. The ice bath was removed and the reaction mixture was allowed to stir at room temperature overnight. […]

FBP21-WW1 = target: T2, FBP21-WW1 (Homo sapiens, UniProt O75554); assay: Isothermal titration calorimetry (ITC) with FBP21-WW1; format: binding; conditions: PBS pH 7.4, 25 °C, protein in cell 250 µM, peptide in syringe 5 mM, GST-tagged FBP21-WW1
T2 construct: with regard to FBP21’s WW domains by ITC; GST (N); made in house; host or cells: E. coli BL21 DE3 (pGEX4T1)
T2 sequence (O75554 122-155 limits assumed): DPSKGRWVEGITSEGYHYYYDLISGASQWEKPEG
Procedure: In order to determine an optimal peptide sequence for a FBP21-tWW ligand, we conducted a phage display experiment for each of the two WW domains. Phages used in these experiments carried a randomized X9-peptide fused to phage coat protein VIII [16]. Enrichment factors were calculated after each selection cycle, and reached a plateau after four panning rounds. Phagemids were isolated and sequenced after the third and fourth panning rounds. The sequences for WW1 and WW2 were overlapping to a large extent, showing their similarity in binding preference. This is expected from evolutionary and binding studies carried out earlier. In agreement with previous findings for this group of WW domains a polyproline stretch and an arginine residue are present in most sequenced clones. […] To define an optimized single monovalent binder, we analyzed the affinities for a selected set of ligands from this panel of sequences with regard to FBP21’s WW domains by ITC under the same conditions as were used for the phage display. […] To further analyze which residues are essential for the interaction, we performed substitution analyses using peptide SPOT arrays (Figure 1D, Supporting Information File 1 Figure S1). The experiment gives some insight into binding specificities. The central role of proline P5 for binding of peptides is evident for both WW domains (Figure 1D, Supporting Information File 1 Figure S1). Proline fulfills two requirements. On the one hand it promotes formation of the PPII helix conformation, on the other hand, it is accommodated well into the hydrophobic groove provided by the individual WW domains. At position P4 proline can be replaced by leucine, a residue well compatible with the PPII helical conformation. Arginine is preferred at position 6 or 9, highlighting the importance of a positive charge in complex formation. […] Possibly, the hybrid resonance of the guanidinium group in the arginine is more important in the case of WW2 compared to WW1. […]
as §1, §2, §3
as §4, with “In ITC measurements with FBP21-tWW and the hPG-peptide conjugate 2, the concentration of 2 in the cell was 90 µM and FBP21-tWW in the syringe 1.4 mM. Injected was 1 × 1 µL, then 19 × 2 µL.” left out, “AddOn.” for “AddOn. To obtain the stoichiometry (N) and the”
FBP21-WW1 and FBP21-WW2 were expressed as a GST-tagged variant from pgex4T1 in E. coli BL21 DE3, FBP21-tWW was expressed from a pET28a-His6-FBP21-tWW plasmid in […]

FBP21-tWW = target: T3, FBP21-tWW (Homo sapiens, UniProt O75554); assay: Isothermal titration calorimetry (ITC) with FBP21-tWW; format: binding; conditions: PBS pH 7.4, 25 °C
T3 construct: made in house; host or cells: E. coli BL21 DE3 (pET28a)
T3 sequence (O75554 122-196 limits assumed): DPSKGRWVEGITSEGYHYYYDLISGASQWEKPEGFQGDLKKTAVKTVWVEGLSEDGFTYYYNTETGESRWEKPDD
Procedure: ITC measurements were performed to analyze the dissociation constant KD of the interaction between FBP21-tWW and hPG-peptide conjugate 2 in PBS, pH 7.4 (Figure 2A). To compare the KD values we also analyzed the binding between FBP21-tWW and the monovalent peptide ligand Ac-WPPPPRVPRGSG-COOH (Figure 2B). […] However, when considering that ≈7 peptides are bound per nanoparticle, the actual multivalency effect is small.
Gel permeation chromatography (GPC)
Molecular weight distribution of hPG-OH core was determined by means of GPC coupled to a refractive index detector (RI) obtaining the complete distribution (Mn, Mp, Mw, dispersity).
Measurements were carried out under highly diluted conditions (5 mg/mL) from a GPC consisting of an Agilent 1100 solvent delivery system with pump, manual injector, and an Agilent differential refractometer. Three 30 cm columns (PPS: Polymer Standards Service GmbH, Germany; Suprema 100 Å, 1000 Å, 3000 Å with 5 and 10 μm particle size) were used to separate aqueous polymer samples using water with 0.1 M NaNO3 as the mobile phase at a flow rate of 1 mL/min. The columns were operated at room temperature with the RI detector at 50 °C. […]
as §3, with “Extinction coefficients were Ɛ = 5500 M−1cm−1 for WPPPPRVPR and Ɛ = 32430 M−1cm−1 for FBP21-tWW.” left out, “ITC experiments were carried out on a Microcal ITC200 (GE Healthcare).” left out
The parameters were set to: temperature 25 °C, spacing: 120 s (for WW1 and WW2 measurements) or 180 s (for tWW measurements), stirring speed: 1000 rpm, feedback gain: high, Filter: 5 s, DP: 7 µcal/s. […] The data was analyzed with Origin and the Microcal ITC 200 AddOn. […]
FBP21-WW1 and FBP21-WW2 were expressed as a GST-tagged variant from pgex4T1 in E. coli BL21 DE3, FBP21-tWW was expressed from a pET28a-His6-FBP21-tWW plasmid in E. coli BL21 DE3 as described previously. […]

WPPPPRVPR peptide = target: T4, WPPPPRVPR peptide; assay: ITC
T4 chain: WPPPPRVPR

hPG-peptide conjugate 2 = target: T5, hPG-peptide conjugate 2 (also: multivalent conjugation to hyperbranched polyglycerol amine (about 7 peptides per polymer), site not given here); assay: ITC
T5 chain: Ac-WPPPPRVPRGSG

Ac-WPPPPRVPRGSG-COOH = target: T6, Ac-WPPPPRVPRGSG-COOH; assay: ITC
T6 chain: Ac-WPPPPRVPRGSG-OH

Kd (FBP21-WW2): 87 ± 3.4 µM
Kd (FBP21-WW1): 155 ± 18 µM
Molecule: Ac-WPPPPRVPR [WPPPPRVPR]

entropy loss upon interaction (FBP21-tWW; FBP21-tWW): −19.5 cal/mol/deg
stoichiometric factor derived from the fit (N) (FBP21-tWW; FBP21-tWW): 1.29 ± 0.0257
Kd (FBP21-tWW; His6-FBP21-tWW, peptide: protein in cell 200 µM, peptide in syringe 4 mM, conjugate 2: 90 µM in cell, FBP21-tWW 1.4 mM in syringe, read-out: KD of the interaction with FBP21-tWW): 150 ± 6 µM
Molecule: Ac-WPPPPRVPRGSG [Ac-WPPPPRVPRGSG-COOH]

WW2 KD (FBP21-WW2): did not show any binding
WW1 KD (FBP21-WW1): did not show any binding
Molecule: RPPCGYPLP

WW2 KD (FBP21-WW2): could not be confirmed as a binder
WW1 KD (FBP21-WW1): could not be confirmed as a binder
Molecule: RPPPPHFPQ

Kd (FBP21-WW2): 68.5 ± 6.9 µM
Kd (FBP21-WW1): 452 ± 45 µM
Molecule: YPRPPGPPP [YPRPPGPPP]

Kd (FBP21-WW2): 270 ± 24 µM
Kd (FBP21-WW1): 490 ± 54 µM
Molecule: YPRPTNPRP [YPRPTNPRP]

Kd (WPPPPRVPR peptide): 87 µM
Molecule: LKKTAVKTVWVEGLSEDGFTYYYNTETGESRWEKPDDFIP [FBP21 WW2 WW2]

Kd (hPG-peptide conjugate 2): 17.6 µM
Kd (Ac-WPPPPRVPRGSG-COOH): 150 µM
B1: FBP21-tWW WW1-WW2 (protein)
chain: T3 sequence (O75554 122-196 limits assumed)

Kd (WPPPPRVPR peptide): 155 µM
Molecule: RKKDPSKGRWVEGITSEGYHYYYDLISGASQWEKPEGFQG [FBP21 WW1 WW1]
